{"source": "the kinase profiling compilation of Christmann-Franck et al. (2016)", "assay_in_all_cases": "KINOMEscan competition binding", "conditions_in_all_cases": "compound 10.0 µM", "key": {"PRKACA (human)": {"biological_target": "PRKACA (human) (UniProt P17612)"}, "NTRK3 (human)": {"biological_target": "NTRK3 (human) (UniProt Q16288)"}, "[1]": {"tested_on": "FLT3 (human), P36888 [D835Y]"}, "MYO3B (human)": {"biological_target": "MYO3B (human) (UniProt Q8WXR4)"}, "AURKC (human)": {"biological_target": "AURKC (human) (UniProt Q9UQB9)", "sequence (Q9UQB9 whole entry, looked up)": "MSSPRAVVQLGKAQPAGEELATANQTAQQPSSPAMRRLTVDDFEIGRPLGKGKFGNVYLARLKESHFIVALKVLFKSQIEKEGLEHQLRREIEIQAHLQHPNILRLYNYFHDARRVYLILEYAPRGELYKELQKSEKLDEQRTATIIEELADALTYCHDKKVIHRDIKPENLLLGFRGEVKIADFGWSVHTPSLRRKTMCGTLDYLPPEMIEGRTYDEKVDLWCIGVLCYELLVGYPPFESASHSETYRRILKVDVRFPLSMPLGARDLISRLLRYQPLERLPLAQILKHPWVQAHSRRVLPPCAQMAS"}, "INSRR (human)": {"biological_target": "INSRR (human) (UniProt P14616)"}, "PHKG2 (human)": {"biological_target": "PHKG2 (human) (UniProt P15735)"}, "RPS6KB1 (human)": {"biological_target": "RPS6KB1 (human) (UniProt P23443)"}, "EPHA4 (human)": {"biological_target": "EPHA4 (human) (UniProt P54764)"}, "CPK1 (P.falciparum)": {"tested_on": "CPK1 (P.falciparum)"}, "CSNK1G2 (human)": {"biological_target": "CSNK1G2 (human) (UniProt P78368)"}, "PLK4 (human)": {"biological_target": "PLK4 (human) (UniProt O00444)"}, "ACVRL1 (human)": {"biological_target": "ACVRL1 (human) (UniProt P37023)"}, "CSNK2A2 (human)": {"biological_target": "CSNK2A2 (human) (UniProt P19784)", "sequence (P19784 whole entry, looked up)": "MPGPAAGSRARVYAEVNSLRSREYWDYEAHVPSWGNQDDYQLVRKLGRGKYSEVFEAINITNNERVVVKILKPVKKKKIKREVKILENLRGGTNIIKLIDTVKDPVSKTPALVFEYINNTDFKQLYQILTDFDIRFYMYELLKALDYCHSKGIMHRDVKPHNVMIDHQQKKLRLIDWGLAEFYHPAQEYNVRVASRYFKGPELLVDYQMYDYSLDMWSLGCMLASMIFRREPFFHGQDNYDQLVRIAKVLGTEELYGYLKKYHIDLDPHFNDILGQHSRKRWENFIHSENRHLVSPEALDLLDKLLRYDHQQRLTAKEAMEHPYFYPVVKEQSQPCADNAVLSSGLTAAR"}, "RIPK1 (human)": {"biological_target": "RIPK1 (human) (UniProt Q13546)"}, "MAP2K1 (human)": {"biological_target": "MAP2K1 (human) (UniProt Q02750)"}, "PIK3C2B (human)": {"biological_target": "PIK3C2B (human) (UniProt O00750)"}, "MAP2K4 (human)": {"biological_target": "MAP2K4 (human) (UniProt P45985)"}, "MUSK (human)": {"biological_target": "MUSK (human) (UniProt O15146)"}, "PRKCH (human)": {"biological_target": "PRKCH (human) (UniProt P24723)"}, "SLK (human)": {"biological_target": "SLK (human) (UniProt Q9H2G2)"}, "CDK13 (human)": {"biological_target": "CDK13 (human) (UniProt Q14004)"}, "[2]": {"tested_on": "PIK3CA (human), P42336 [Q546K]"}, "CDC42BPG (human)": {"biological_target": "CDC42BPG (human) (UniProt Q6DT37)", "sequence (Q6DT37 whole entry, looked up)": "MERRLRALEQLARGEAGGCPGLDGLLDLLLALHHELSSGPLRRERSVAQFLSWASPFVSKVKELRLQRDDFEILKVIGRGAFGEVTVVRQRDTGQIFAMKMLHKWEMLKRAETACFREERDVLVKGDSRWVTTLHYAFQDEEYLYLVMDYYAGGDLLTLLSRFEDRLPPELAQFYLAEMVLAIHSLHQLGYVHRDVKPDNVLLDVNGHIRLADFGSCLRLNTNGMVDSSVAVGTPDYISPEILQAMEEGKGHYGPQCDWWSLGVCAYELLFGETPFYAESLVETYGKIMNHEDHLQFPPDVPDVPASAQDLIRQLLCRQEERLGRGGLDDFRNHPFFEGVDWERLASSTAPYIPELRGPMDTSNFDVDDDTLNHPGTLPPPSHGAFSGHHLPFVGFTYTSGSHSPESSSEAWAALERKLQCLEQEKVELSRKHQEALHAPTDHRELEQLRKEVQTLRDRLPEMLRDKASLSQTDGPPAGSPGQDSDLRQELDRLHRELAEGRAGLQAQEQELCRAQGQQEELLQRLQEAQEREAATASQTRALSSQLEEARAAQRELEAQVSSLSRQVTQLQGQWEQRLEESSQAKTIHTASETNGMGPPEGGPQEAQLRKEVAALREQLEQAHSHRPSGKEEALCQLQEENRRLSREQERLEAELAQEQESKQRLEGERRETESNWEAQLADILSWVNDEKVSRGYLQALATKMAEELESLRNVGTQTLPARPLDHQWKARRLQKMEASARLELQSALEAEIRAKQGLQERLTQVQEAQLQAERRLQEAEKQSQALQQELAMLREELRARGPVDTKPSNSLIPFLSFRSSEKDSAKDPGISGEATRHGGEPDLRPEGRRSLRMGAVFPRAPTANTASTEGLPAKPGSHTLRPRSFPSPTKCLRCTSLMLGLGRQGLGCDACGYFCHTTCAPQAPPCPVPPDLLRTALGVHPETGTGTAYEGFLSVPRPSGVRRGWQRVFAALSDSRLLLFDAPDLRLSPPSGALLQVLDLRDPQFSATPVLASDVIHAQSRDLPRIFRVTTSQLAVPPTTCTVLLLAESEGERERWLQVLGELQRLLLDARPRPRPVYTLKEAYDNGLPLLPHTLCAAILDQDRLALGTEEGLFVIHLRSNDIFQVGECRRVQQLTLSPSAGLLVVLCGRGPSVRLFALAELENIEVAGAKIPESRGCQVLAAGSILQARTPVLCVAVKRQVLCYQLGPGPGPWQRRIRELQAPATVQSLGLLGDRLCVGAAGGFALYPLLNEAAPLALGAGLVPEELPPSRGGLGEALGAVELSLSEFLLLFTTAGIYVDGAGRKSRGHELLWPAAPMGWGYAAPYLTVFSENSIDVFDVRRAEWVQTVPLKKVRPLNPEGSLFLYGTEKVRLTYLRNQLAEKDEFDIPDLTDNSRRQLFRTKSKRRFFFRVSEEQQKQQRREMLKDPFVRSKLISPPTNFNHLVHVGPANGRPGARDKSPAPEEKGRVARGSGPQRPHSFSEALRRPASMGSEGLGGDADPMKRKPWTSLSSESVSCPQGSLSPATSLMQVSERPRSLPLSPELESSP"}, "SIK3 (human)": {"biological_target": "SIK3 (human) (UniProt Q9Y2K2)"}, "[3]": {"tested_on": "RET (human), P07949 [V804M]"}, "CDK2 (human)": {"biological_target": "CDK2 (human) (UniProt P24941)"}, "[4]": {"tested_on": "FLT3 (human), P36888 [K663Q]"}, "VRK2 (human)": {"biological_target": "VRK2 (human) (UniProt Q86Y07)", "sequence (Q86Y07 whole entry, looked up)": "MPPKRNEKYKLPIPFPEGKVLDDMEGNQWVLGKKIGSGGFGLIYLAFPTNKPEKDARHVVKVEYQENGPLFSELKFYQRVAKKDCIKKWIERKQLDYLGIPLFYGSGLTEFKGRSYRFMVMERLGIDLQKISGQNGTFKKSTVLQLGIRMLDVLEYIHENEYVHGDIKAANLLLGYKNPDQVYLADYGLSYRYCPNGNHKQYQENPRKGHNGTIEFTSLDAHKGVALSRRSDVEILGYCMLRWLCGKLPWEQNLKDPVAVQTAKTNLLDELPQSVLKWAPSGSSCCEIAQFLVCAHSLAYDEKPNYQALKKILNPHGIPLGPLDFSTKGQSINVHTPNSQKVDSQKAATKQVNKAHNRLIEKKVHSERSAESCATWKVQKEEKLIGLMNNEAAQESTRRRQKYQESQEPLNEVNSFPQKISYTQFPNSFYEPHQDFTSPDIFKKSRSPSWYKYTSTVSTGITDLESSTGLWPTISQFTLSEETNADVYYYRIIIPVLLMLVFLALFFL"}, "CDKL5 (human)": {"biological_target": "CDKL5 (human) (UniProt O76039)"}, "MAP3K6 (human)": {"biological_target": "MAP3K6 (human) (UniProt O95382)"}, "MAP3K12 (human)": {"biological_target": "MAP3K12 (human) (UniProt Q12852)"}, "IRAK3 (human)": {"biological_target": "IRAK3 (human) (UniProt Q9Y616)"}, "AKT2 (human)": {"biological_target": "AKT2 (human) (UniProt P31751)", "sequence (P31751 whole entry, looked up)": "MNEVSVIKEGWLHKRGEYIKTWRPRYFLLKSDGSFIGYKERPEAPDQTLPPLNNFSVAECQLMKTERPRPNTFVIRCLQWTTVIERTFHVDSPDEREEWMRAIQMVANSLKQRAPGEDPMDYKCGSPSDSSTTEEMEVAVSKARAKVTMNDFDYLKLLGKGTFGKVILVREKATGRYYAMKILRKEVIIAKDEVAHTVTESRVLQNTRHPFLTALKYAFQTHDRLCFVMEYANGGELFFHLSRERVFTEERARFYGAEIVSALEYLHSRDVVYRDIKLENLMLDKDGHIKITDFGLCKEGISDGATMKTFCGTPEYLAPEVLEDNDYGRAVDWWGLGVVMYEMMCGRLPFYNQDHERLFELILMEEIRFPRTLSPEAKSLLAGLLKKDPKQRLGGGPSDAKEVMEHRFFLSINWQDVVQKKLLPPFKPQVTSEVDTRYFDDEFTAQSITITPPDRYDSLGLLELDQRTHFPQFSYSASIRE"}, "FER (human)": {"biological_target": "FER (human) (UniProt P16591)"}, "DMPK (human)": {"biological_target": "DMPK (human) (UniProt Q09013)"}, "CDK3 (human)": {"biological_target": "CDK3 (human) (UniProt Q00526)", "sequence (Q00526 whole entry, looked up)": "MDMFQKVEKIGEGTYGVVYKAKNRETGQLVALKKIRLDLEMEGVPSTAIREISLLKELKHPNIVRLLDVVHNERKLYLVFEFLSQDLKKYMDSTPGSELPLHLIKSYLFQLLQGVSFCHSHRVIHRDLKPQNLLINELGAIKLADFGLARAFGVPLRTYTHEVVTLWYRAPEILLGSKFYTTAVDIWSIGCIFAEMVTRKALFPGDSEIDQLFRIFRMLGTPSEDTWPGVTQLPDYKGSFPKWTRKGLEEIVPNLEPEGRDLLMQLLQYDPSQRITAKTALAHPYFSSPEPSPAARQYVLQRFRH"}, "SNRK (human)": {"biological_target": "SNRK (human) (UniProt Q9NRH2)"}, "CSK (human)": {"biological_target": "CSK (human) (UniProt P41240)"}, "[5]": {"tested_on": "PIK3CA (human), P42336 [M1043I]"}, "HIPK2 (human)": {"biological_target": "HIPK2 (human) (UniProt Q9H2X6)", "sequence (Q9H2X6 whole entry, looked up)": "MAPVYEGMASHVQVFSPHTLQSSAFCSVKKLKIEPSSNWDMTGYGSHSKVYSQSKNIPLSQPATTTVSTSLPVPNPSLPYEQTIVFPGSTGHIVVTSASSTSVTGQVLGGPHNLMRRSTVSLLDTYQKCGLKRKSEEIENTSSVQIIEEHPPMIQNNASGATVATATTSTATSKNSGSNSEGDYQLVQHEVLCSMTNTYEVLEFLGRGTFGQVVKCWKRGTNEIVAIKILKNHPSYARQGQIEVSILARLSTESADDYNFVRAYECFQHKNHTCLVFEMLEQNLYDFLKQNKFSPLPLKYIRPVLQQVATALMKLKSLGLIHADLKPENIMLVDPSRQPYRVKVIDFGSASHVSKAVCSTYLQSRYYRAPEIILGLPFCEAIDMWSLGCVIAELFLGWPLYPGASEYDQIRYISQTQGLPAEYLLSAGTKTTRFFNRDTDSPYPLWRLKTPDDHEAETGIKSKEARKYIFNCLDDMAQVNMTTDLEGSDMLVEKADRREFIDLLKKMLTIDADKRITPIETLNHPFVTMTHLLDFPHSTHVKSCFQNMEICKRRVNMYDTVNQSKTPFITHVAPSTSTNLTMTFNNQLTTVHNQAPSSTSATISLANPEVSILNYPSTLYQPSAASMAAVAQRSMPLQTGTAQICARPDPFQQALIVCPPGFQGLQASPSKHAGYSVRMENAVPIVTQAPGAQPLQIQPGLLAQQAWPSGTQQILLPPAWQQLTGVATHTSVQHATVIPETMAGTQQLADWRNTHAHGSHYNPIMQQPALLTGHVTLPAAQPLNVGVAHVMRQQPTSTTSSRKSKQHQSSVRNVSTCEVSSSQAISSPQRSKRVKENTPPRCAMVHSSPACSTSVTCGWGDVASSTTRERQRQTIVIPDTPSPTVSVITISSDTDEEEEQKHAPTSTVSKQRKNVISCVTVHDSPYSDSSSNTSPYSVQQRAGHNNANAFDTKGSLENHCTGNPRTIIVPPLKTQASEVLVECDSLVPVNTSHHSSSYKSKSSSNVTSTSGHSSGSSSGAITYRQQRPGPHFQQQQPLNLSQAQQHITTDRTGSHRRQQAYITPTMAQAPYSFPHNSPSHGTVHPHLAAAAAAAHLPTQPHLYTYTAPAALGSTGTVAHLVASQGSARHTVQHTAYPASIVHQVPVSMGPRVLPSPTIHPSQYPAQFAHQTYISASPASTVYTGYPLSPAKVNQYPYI"}}}
{"smiles": "COc1ccc(-c2ccc3c(N4CCOCC4)nc(N4C[C@@H](C)O[C@@H](C)C4)nc3n2)cc1CO", "values": [{"measurement": "per cent of control", "setting": "PRKACA (human)", "value": 100, "unit": "%"}, {"measurement": "kinase still bound, per cent of control", "setting": "NTRK3 (human)", "value": 77, "unit": "%"}, {"measurement": "kinase still bound, per cent of control", "setting": "[1]", "value": 86, "unit": "%"}, {"measurement": "kinase still bound, per cent of control", "setting": "MYO3B (human)", "value": 100, "unit": "%"}, {"measurement": "kinase still bound, per cent of control", "setting": "AURKC (human)", "value": 100, "unit": "%"}, {"measurement": "kinase still bound, per cent of control", "setting": "INSRR (human)", "value": 100, "unit": "%"}, {"measurement": "kinase still bound, per cent of control", "setting": "PHKG2 (human)", "value": 77, "unit": "%"}, {"measurement": "kinase still bound, per cent of control", "setting": "RPS6KB1 (human)", "value": 100, "unit": "%"}, {"measurement": "kinase still bound, per cent of control", "setting": "EPHA4 (human)", "value": 100, "unit": "%"}, {"measurement": "kinase still bound, per cent of control", "setting": "CPK1 (P.falciparum)", "value": 100, "unit": "%"}, {"measurement": "kinase still bound, per cent of control", "setting": "CSNK1G2 (human)", "value": 100, "unit": "%"}, {"measurement": "kinase still bound, per cent of control", "setting": "PLK4 (human)", "value": 100, "unit": "%"}, {"measurement": "kinase still bound, per cent of control", "setting": "ACVRL1 (human)", "value": 100, "unit": "%"}, {"measurement": "kinase still bound, per cent of control", "setting": "CSNK2A2 (human)", "value": 98, "unit": "%"}, {"measurement": "kinase still bound, per cent of control", "setting": "RIPK1 (human)", "value": 100, "unit": "%"}, {"measurement": "kinase still bound, per cent of control", "setting": "MAP2K1 (human)", "value": 100, "unit": "%"}, {"measurement": "kinase still bound, per cent of control", "setting": "PIK3C2B (human)", "value": 85, "unit": "%"}, {"measurement": "kinase still bound, per cent of control", "setting": "MAP2K4 (human)", "value": 88, "unit": "%"}, {"measurement": "kinase still bound, per cent of control", "setting": "MUSK (human)", "value": 100, "unit": "%"}, {"measurement": "kinase still bound, per cent of control", "setting": "PRKCH (human)", "value": 100, "unit": "%"}, {"measurement": "kinase still bound, per cent of control", "setting": "SLK (human)", "value": 98, "unit": "%"}, {"measurement": "per cent of control", "setting": "CDK13 (human)", "value": 100, "unit": "%"}, {"measurement": "kinase still bound, per cent of control", "setting": "[2]", "value": 2.8, "unit": "%"}, {"measurement": "kinase still bound, per cent of control", "setting": "CDC42BPG (human)", "value": 65, "unit": "%"}, {"measurement": "kinase still bound, per cent of control", "setting": "SIK3 (human)", "value": 97, "unit": "%"}, {"measurement": "kinase still bound, per cent of control", "setting": "[3]", "value": 94, "unit": "%"}, {"measurement": "per cent of control", "setting": "CDK2 (human)", "value": 77, "unit": "%"}, {"measurement": "kinase still bound, per cent of control", "setting": "[4]", "value": 96, "unit": "%"}, {"measurement": "kinase still bound, per cent of control", "setting": "VRK2 (human)", "value": 87, "unit": "%"}, {"measurement": "per cent of control", "setting": "CDKL5 (human)", "value": 77, "unit": "%"}, {"measurement": "kinase still bound, per cent of control", "setting": "MAP3K6 (human)", "value": 91, "unit": "%"}, {"measurement": "per cent of control", "setting": "MAP3K12 (human)", "value": 100, "unit": "%"}, {"measurement": "kinase still bound, per cent of control", "setting": "IRAK3 (human)", "value": 100, "unit": "%"}, {"measurement": "kinase still bound, per cent of control", "setting": "AKT2 (human)", "value": 83, "unit": "%"}, {"measurement": "kinase still bound, per cent of control", "setting": "FER (human)", "value": 100, "unit": "%"}, {"measurement": "kinase still bound, per cent of control", "setting": "DMPK (human)", "value": 86, "unit": "%"}, {"measurement": "per cent of control", "setting": "CDK3 (human)", "value": 100, "unit": "%"}, {"measurement": "kinase still bound, per cent of control", "setting": "SNRK (human)", "value": 48, "unit": "%"}, {"measurement": "kinase still bound, per cent of control", "setting": "CSK (human)", "value": 77, "unit": "%"}, {"measurement": "kinase still bound, per cent of control", "setting": "[5]", "value": 2, "unit": "%"}, {"measurement": "kinase still bound, per cent of control", "setting": "HIPK2 (human)", "value": 58, "unit": "%"}]}
